# From the supplement of paper PMC10307832
# How the values were obtained:
# Assay in all cases: relative viability (nuclei count vs DMSO), 5 days (fraction); higher = more cells survive
# NCI-H2087 = system: NCI-H2087
# In short: (§1)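 Lung cancer cell lines were pin-tool dosed in 1536-well plates on the day after seeding, with either a lone drug or a fixed anchor-drug dose plus five library-drug doses (not always all listed) in √10 steps. Nuclei were counted on 4× images after 5 days. Relative viability is the ratio of treated-well to vehicle-well nuclei counts, with each value a median of duplicate plates.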
# NCI-H727 = system: NCI-H727
# In short: as §1
# SK-LU-1 = system: SK-LU-1
# In short: as §1
# LXF-289 = system: LXF-289
# In short: as §1
# NCI-H3122 = system: NCI-H3122
# In short: as §1
# RERF-LC-KJ = system: RERF-LC-KJ
# In short: as §1
# LCLC-97TM1 = system: LCLC-97TM1
# In short: as §1
# NCI-H647 = system: NCI-H647
# In short: as §1
# NCI-H322M = system: NCI-H322M
# In short: as §1
# HCC-827 = system: HCC-827
# In short: as §1
# NCI-H1437 = system: NCI-H1437
# In short: as §1
# NCI-H2228 = system: NCI-H2228
# In short: as §1
# 201T = system: 201T
# In short: as §1
# NCI-H1792 = system: NCI-H1792
# In short: as §1
# LCLC-103H = system: LCLC-103H
# In short: as §1
# BEN = system: BEN
# In short: as §1
# NCI-H1650 = system: NCI-H1650
# In short: as §1
# CAL-12T = system: CAL-12T
# In short: as §1
# NCI-H2405 = system: NCI-H2405
# In short: as §1
smiles,measurement,setting,value
Cc1sc2c(c1C)C(c1ccc(Cl)cc1)=N[C@@H](CC(=O)OC(C)(C)C)c1nnc(C)n1-2 [JQ1] + CC(C)C[C@H](NC(=O)[C@H](Cc1ccccc1)NC(=O)c1cnccn1)B(O)O [Bortezomib] (partner 0.002 µM),relative viability,NCI-H2087; first compound 0.04 µM,0.832
same,relative viability,NCI-H2087; first compound 0.4 µM,0.943
same,relative viability,NCI-H2087; first compound 1.265 µM,0.553
same,relative viability,NCI-H2087; first compound 4 µM,0.416
same,relative viability,NCI-H727; first compound 0.04 µM,0.756
same,relative viability,NCI-H727; first compound 0.1265 µM,1.01
same,relative viability,NCI-H727; first compound 0.4 µM,0.588
same,relative viability,NCI-H727; first compound 1.265 µM,0.38
same,relative viability,NCI-H727; first compound 4 µM,0.395
same,relative viability,SK-LU-1; first compound 0.04 µM,1.37
same,relative viability,SK-LU-1; first compound 0.1265 µM,0.693
same,relative viability,SK-LU-1; first compound 0.4 µM,0.941
same,relative viability,SK-LU-1; first compound 1.265 µM,0.28
same,relative viability,SK-LU-1; first compound 4 µM,0.205
same,relative viability,LXF-289; first compound 0.04 µM,0.977
same,relative viability,LXF-289; first compound 0.1265 µM,0.887
same,relative viability,LXF-289; first compound 0.4 µM,0.865
same,relative viability,LXF-289; first compound 1.265 µM,0.894
same,relative viability,LXF-289; first compound 4 µM,0.719
same,relative viability,NCI-H3122; first compound 0.04 µM,1.01
same,relative viability,NCI-H3122; first compound 0.1265 µM,0.998
same,relative viability,NCI-H3122; first compound 0.4 µM,1.03
same,relative viability,NCI-H3122; first compound 1.265 µM,0.996
same,relative viability,NCI-H3122; first compound 4 µM,0.905
same,relative viability,RERF-LC-KJ; first compound 0.04 µM,1.17
same,relative viability,RERF-LC-KJ; first compound 0.1265 µM,1.11
same,relative viability,RERF-LC-KJ; first compound 0.4 µM,1.13
same,relative viability,RERF-LC-KJ; first compound 1.265 µM,0.52
same,relative viability,RERF-LC-KJ; first compound 4 µM,0.415
same,relative viability,LCLC-97TM1; first compound 0.04 µM,0.492
same,relative viability,LCLC-97TM1; first compound 0.1265 µM,0.533
same,relative viability,LCLC-97TM1; first compound 0.4 µM,0.336
same,relative viability,LCLC-97TM1; first compound 1.265 µM,0.0995
same,relative viability,LCLC-97TM1; first compound 4 µM,0.0548
same,relative viability,NCI-H647; first compound 0.04 µM,0.678
same,relative viability,NCI-H647; first compound 0.1265 µM,0.521
same,relative viability,NCI-H647; first compound 0.4 µM,0.346
same,relative viability,NCI-H647; first compound 1.265 µM,0.0716
same,relative viability,NCI-H647; first compound 4 µM,0.102
same,relative viability,NCI-H322M; first compound 0.04 µM,1.33
same,relative viability,NCI-H322M; first compound 0.1265 µM,1.24
same,relative viability,NCI-H322M; first compound 0.4 µM,1.35
same,relative viability,NCI-H322M; first compound 1.265 µM,1.04
same,relative viability,NCI-H322M; first compound 4 µM,0.94
same,relative viability,HCC-827; first compound 0.04 µM,0.929
same,relative viability,HCC-827; first compound 0.4 µM,0.743
same,relative viability,HCC-827; first compound 1.265 µM,1.25
same,relative viability,HCC-827; first compound 4 µM,0.928
same,relative viability,NCI-H1437; first compound 0.04 µM,0.42
same,relative viability,NCI-H1437; first compound 0.1265 µM,0.369
same,relative viability,NCI-H1437; first compound 0.4 µM,0.276
same,relative viability,NCI-H1437; first compound 1.265 µM,0.228
same,relative viability,NCI-H1437; first compound 4 µM,0.194
same,relative viability,NCI-H2228; first compound 0.04 µM,0.764
same,relative viability,NCI-H2228; first compound 0.1265 µM,0.918
same,relative viability,NCI-H2228; first compound 0.4 µM,0.609
same,relative viability,NCI-H2228; first compound 1.265 µM,0.245
same,relative viability,NCI-H2228; first compound 4 µM,0.185
same,relative viability,201T; first compound 0.04 µM,1.14
same,relative viability,201T; first compound 0.1265 µM,0.643
same,relative viability,201T; first compound 0.4 µM,1.02
same,relative viability,201T; first compound 1.265 µM,0.859
same,relative viability,201T; first compound 4 µM,0.768
same,relative viability,NCI-H1792; first compound 0.04 µM,0.953
same,relative viability,NCI-H1792; first compound 0.4 µM,0.895
same,relative viability,NCI-H1792; first compound 1.265 µM,0.657
same,relative viability,NCI-H1792; first compound 4 µM,0.456
same,relative viability,LCLC-103H; first compound 0.04 µM,1.04
same,relative viability,LCLC-103H; first compound 0.1265 µM,1.01
same,relative viability,LCLC-103H; first compound 0.4 µM,1.06
same,relative viability,LCLC-103H; first compound 1.265 µM,0.557
same,relative viability,LCLC-103H; first compound 4 µM,0.439
same,relative viability,BEN; first compound 0.04 µM,0.627
same,relative viability,BEN; first compound 0.1265 µM,0.605
same,relative viability,BEN; first compound 0.4 µM,0.463
same,relative viability,BEN; first compound 1.265 µM,0.322
same,relative viability,BEN; first compound 4 µM,0.221
same,relative viability,NCI-H1650; first compound 0.04 µM,0.177
same,relative viability,NCI-H1650; first compound 0.1265 µM,0.191
same,relative viability,NCI-H1650; first compound 0.4 µM,0.187
same,relative viability,NCI-H1650; first compound 1.265 µM,0.175
same,relative viability,NCI-H1650; first compound 4 µM,0.208
same,relative viability,CAL-12T; first compound 0.04 µM,1.06
same,relative viability,CAL-12T; first compound 0.4 µM,0.638
same,relative viability,CAL-12T; first compound 1.265 µM,0.415
same,relative viability,CAL-12T; first compound 4 µM,0.317
same,relative viability,NCI-H2405; first compound 0.04 µM,1.07
same,relative viability,NCI-H2405; first compound 0.1265 µM,0.628
same,relative viability,NCI-H2405; first compound 0.4 µM,1.03
same,relative viability,NCI-H2405; first compound 1.265 µM,0.827
same,relative viability,NCI-H2405; first compound 4 µM,0.678
